ChEMBL document CHEMBL1141829, “10'-Hydroxyusambarensine, a new antimalarial bisindole alkaloid from the roots of Strychnos usambarensis” (J Nat Prod, 1999)
In brackets after ≈: the same amount, converted by molar mass.

What was measured:
Plasmodium falciparum [1] = assay: Antiplasmodial activity after 36 hrs against chloroquine-sensitive Plasmodium falciparum FCA 20 in human erythrocytes by [3H]hypoxanthine uptake; type: functional, organism-based
Plasmodium falciparum [2] = assay: Antiplasmodial activity after 36 hrs against chloroquine-resistant Plasmodium falciparum W2 in human erythrocytes by [3H]hypoxanthine uptake; type: functional, organism-based

| SMILES | IC50 (Plasmodium falciparum [1]) [µg/mL] | IC50 (Plasmodium falciparum [2]) [µg/mL] |
| --- | --- | --- |
| C/C=C1/CN2CCc3c([nH]c4ccccc34)[C@@H]2C[C@@H]1Cc1nccc2c1[nH]c1ccc(O)cc12 | 0.113 (≈ 0.252 µM) | 0.122 (≈ 0.272 µM) |
| C/C=C1\CN2CCc3c([nH]c4ccccc34)[C@@H]2C[C@@H]1Cc1nccc2c1[nH]c1ccc(O)cc12 | 0.48 (≈ 1.07 µM) | 0.16 (≈ 0.357 µM) |
| C/C=C1/CN2CCc3c([nH]c4ccccc34)[C@@H]2C[C@@H]1Cc1nccc2c1[nH]c1ccccc12 [USAMBARENSINE] | 0.655 (≈ 1.51 µM) | 0.265 (≈ 0.613 µM) |
